Test results published in ChEMBL document CHEMBL1201862, “PubChem BioAssay data set” (2004).
Blank lines part the entries; values can stand above or below the molecule they belong to. Calls of active or inactive are those of the source.

Experiments:
[1] = biological target: Cytochrome P450 3A4 (Homo sapiens, UniProt P08684); settings: Potency;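 note: confirmatory qHTS run detecting inhibitors and substrates of CYP3A4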
[2] = biological target: Aryl hydrocarbon receptor (Homo sapiens, UniProt P35869); settings: Potency;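 note: confirmatory quantitative high-throughput screen measuring activation of the AhR signaling pathway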
Aryl hydrocarbon receptor, sequence (P35869 whole entry): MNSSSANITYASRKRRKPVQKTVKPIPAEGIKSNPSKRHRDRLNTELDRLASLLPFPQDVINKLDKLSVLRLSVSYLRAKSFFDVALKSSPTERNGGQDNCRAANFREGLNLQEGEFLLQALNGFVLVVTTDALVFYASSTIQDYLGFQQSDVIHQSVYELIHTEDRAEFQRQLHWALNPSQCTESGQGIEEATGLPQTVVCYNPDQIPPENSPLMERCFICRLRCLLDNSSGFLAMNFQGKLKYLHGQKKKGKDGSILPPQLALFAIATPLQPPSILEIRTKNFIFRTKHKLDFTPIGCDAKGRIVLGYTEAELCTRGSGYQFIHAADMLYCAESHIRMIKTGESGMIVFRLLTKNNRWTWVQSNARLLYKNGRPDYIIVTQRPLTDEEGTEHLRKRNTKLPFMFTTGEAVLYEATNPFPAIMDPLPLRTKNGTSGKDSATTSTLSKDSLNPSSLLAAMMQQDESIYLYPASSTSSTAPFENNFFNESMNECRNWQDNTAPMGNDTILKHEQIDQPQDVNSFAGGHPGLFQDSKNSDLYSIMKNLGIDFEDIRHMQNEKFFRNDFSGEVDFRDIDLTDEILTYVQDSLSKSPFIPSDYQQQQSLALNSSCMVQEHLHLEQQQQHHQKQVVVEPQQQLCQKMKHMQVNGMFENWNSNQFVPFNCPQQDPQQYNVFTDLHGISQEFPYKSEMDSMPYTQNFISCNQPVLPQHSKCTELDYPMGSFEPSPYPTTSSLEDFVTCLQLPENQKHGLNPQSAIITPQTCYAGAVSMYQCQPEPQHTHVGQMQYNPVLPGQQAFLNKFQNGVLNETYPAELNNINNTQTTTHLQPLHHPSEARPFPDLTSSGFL

[3] = biological target: T1, Sentrin-specific protease 8 (Homo sapiens, UniProt Q96LD8); type: functional
T1 sequence (Q96LD8 whole entry): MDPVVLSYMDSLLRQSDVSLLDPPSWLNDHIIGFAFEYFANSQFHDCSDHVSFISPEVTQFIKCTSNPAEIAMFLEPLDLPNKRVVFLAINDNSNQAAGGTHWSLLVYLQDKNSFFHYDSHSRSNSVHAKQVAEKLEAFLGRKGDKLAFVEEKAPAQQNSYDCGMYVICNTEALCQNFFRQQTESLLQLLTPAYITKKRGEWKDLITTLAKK

[4] = biological target: T1, Sentrin-specific protease 8; type: functional; remark: listed apart in the source
[5] = biological target: T2, High affinity choline transporter 1 (Homo sapiens, UniProt Q9GZV3); test: human choline transporter blockers, potency – cell-based, 5-point CRC, membrane potential dye, dose response (AID 504840); type: functional
T2 sequence (Q9GZV3 whole entry): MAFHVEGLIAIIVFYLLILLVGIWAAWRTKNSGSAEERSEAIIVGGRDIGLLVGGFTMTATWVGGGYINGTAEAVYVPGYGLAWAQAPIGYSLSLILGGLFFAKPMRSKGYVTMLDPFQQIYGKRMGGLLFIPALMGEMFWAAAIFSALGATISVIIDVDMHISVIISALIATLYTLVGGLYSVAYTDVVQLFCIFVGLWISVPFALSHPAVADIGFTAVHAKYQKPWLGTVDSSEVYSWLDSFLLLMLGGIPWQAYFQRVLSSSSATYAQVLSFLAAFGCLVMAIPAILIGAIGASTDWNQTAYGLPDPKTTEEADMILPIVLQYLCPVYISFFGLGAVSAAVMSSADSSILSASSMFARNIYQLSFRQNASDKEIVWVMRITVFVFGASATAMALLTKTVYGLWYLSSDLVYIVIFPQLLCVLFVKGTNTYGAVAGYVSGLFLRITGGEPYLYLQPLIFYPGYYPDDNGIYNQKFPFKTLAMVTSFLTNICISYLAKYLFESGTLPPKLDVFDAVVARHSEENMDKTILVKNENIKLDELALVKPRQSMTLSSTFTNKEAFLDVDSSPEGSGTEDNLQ

[6] = biological target: T2, High affinity choline transporter 1; test: human choline transporter blockers, potency – cell-based, 10-point CRC, membrane potential dye, dose response (AID 588401); type: functional;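 note: membrane potential dye fluorescence of choline-evoked depolarization via CHT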
[7] = biological target: Nuclear receptor subfamily 5 group A member 2 (Homo sapiens, UniProt O00482); type: functional, cell-based;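 note: HEK293T cells transfected with LRH-1 and a StAR promoter luciferase reporter; potency for inhibitors that lower LRH-1 driven reporter light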
[8] = biological target: Steroidogenic factor 1 (Homo sapiens, UniProt Q13285); test: Counterscreen for inverse agonists of the liver receptor homolog-1 (LRH-1; NR5A2): Luminescence-based cell-based high throughput dose response assay to identify inverse agonists of the Steroidogenic Factor 1 Nuclear Receptor (SF1; NR5A1).; type: functional
[9] = nonselective StAR promoter luciferase inhibitors – cell-based, luminescence, luciferase reporter, counter-screen for LRH-1 inverse agonist project, dose response (AID 651969); type: functional
[10] = biological target: 26S proteasome non-ATPase regulatory subunit 14 (Homo sapiens, UniProt O00487); test: inhibition of proteasome subunit RPN11 – biochemical, fluorescence polarization, uHTS hits, confirmation (AID 602368); type: functional
26S proteasome non-ATPase regulatory subunit 14, sequence (O00487 whole entry): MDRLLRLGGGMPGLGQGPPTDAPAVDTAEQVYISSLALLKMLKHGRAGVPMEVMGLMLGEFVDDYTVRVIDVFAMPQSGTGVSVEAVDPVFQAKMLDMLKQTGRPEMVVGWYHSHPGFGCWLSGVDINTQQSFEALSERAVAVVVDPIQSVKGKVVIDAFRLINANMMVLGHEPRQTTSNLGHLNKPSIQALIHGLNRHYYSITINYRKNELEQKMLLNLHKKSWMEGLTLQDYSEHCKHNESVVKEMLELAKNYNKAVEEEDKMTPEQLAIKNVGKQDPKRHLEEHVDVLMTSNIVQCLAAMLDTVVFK

[11] = biological target: 72 kDa type IV collagenase (Homo sapiens, UniProt P08253); test: Dose Response validation of uHTS RPN11 inhibitor hits using a MMP-2 Fluorescence assay.; type: functional
72 kDa type IV collagenase, sequence (P08253 whole entry): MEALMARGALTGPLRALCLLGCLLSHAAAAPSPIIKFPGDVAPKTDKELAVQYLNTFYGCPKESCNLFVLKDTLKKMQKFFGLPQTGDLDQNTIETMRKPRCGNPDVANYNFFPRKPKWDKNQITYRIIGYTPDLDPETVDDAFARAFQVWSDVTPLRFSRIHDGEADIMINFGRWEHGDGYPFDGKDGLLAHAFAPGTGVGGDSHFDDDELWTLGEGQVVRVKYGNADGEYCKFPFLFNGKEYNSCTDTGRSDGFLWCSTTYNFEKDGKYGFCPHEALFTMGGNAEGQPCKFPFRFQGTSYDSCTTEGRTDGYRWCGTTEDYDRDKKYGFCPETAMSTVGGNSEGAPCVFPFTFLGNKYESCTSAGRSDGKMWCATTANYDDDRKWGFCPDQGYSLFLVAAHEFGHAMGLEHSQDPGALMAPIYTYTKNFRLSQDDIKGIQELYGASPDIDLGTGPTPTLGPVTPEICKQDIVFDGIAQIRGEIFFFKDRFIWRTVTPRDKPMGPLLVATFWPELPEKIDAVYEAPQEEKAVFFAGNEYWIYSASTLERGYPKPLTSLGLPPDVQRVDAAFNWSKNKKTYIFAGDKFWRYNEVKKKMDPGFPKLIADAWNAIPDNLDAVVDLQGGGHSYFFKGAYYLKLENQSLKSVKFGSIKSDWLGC

[12] = biological target: Prothrombin (Bos taurus, UniProt P00735); test: thrombin protease inhibitors – biochemical, fluorescence polarization, uHTS hits, dose response (AID 602369); type: functional
[13] = biological target: Benomyl/methotrexate resistance protein (Candida albicans, UniProt P28873); test: Candida albicans Mdr1 pump inhibition curves – singleplex, Cherry Pick1 hits, dose response (AID 588608); type: functional
[14] = biological target: Low molecular weight phosphotyrosine protein phosphatase (Homo sapiens, UniProt P24666); type: functional; settings: read-out: IC50_Mean;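 note: Dose-response confirmation assay measuring inhibition of LMPTP enzyme activity by fluorescence intensity read-out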
Low molecular weight phosphotyrosine protein phosphatase, sequence (P24666 whole entry, the tested form may be a part): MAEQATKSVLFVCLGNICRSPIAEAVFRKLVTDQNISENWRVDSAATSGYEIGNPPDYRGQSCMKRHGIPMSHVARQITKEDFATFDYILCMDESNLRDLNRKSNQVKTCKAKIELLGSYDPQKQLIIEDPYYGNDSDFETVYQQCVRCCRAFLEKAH

[15] = biological target: T3, Tyrosine-protein phosphatase non-receptor type 22 (Homo sapiens, UniProt Q9Y2R2); test: PTPN22 enzyme inhibitors – biochemical, fluorescence, LYP catalytic domain, selectivity assay for LMPTP inhibitor project, dose response (AID 652006); type: functional; settings: read-out: IC50_Mean
T3 sequence (Q9Y2R2 whole entry): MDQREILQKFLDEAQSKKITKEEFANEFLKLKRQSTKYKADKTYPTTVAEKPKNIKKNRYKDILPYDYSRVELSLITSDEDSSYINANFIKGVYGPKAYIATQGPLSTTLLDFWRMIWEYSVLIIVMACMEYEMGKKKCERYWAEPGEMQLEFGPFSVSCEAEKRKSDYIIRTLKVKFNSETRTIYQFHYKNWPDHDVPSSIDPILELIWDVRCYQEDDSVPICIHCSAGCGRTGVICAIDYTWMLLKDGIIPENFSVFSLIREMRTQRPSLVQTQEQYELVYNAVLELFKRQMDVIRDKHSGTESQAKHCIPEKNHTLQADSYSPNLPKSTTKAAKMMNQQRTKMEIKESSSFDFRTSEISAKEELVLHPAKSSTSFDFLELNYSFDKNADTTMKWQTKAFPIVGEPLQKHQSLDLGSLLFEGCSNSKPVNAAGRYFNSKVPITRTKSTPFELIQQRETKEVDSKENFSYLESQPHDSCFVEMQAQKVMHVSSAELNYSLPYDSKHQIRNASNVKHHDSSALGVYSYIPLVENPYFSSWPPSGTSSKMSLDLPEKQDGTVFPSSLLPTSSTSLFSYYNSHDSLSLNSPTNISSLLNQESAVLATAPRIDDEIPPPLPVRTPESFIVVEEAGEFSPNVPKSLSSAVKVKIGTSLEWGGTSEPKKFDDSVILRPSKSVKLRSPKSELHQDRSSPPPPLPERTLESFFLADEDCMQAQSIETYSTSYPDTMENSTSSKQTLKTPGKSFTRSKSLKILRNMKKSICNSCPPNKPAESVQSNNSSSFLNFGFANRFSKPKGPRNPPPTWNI

[16] = biological target: Tyrosine-protein phosphatase non-receptor type 11 (Homo sapiens, UniProt Q06124); test: PTPN11 enzyme inhibitors – biochemical, selectivity assay for STEP inhibitor project, dose response (AID 602367); type: functional; settings: read-out: IC50_Mean
[17] = biological target: Tyrosine-protein phosphatase non-receptor type 5 (Homo sapiens, UniProt P54829); test: PTPN5 enzyme inhibition – biochemical, fluorescence intensity, uHTS hits, confirmation (AID 602372); type: functional; settings: read-out: IC50_Mean
[18] = biological target: Dual specificity protein phosphatase 3 (Homo sapiens, UniProt P51452); test: VHR phosphatase inhibition, dose response, selectivity assay for STEP inhibitor project, biochemical (AID 602374); type: functional; settings: read-out: IC50_Mean
Dual specificity protein phosphatase 3, sequence (P51452 whole entry): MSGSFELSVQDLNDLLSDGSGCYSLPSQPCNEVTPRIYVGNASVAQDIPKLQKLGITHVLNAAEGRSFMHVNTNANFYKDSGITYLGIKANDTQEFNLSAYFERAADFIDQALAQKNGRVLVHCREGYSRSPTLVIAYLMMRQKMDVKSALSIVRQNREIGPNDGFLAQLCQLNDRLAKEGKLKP

[19] = biological target: T4, Methionyl-tRNA synthetase, putative (Trypanosoma brucei brucei, UniProt Q38C91); type: functional, Trypanosoma brucei brucei strain 927/4 GUTat10.1
T4 sequence (Q38C91 whole entry): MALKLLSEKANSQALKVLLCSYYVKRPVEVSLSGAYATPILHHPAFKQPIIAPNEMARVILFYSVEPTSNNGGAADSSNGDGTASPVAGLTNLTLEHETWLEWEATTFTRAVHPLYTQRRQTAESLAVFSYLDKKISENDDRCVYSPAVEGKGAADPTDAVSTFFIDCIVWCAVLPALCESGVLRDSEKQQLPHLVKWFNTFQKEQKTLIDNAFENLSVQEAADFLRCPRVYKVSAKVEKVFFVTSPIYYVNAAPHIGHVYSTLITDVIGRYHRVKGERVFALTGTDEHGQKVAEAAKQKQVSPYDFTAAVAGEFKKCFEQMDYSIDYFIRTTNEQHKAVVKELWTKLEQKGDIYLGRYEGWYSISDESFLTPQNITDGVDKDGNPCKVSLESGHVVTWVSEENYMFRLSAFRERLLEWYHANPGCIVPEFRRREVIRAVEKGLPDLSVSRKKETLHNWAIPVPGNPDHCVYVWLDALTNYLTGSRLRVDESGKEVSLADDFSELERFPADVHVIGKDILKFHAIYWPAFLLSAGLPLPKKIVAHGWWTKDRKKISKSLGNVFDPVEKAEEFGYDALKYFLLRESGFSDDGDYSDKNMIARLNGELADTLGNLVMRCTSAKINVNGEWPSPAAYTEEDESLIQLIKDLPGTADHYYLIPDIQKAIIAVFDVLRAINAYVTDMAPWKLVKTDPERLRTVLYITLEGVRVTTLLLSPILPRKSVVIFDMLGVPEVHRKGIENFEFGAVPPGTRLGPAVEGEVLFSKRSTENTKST

[20] = Counterscreen for inhibitors of Trypanosoma brucei methionyl tRNA synthetase (MetRS): Luminescence-based cell-based high throughput dose response assay to identify compounds that are cytotoxic to Jurkat human T lymphocyte cells.; type: functional
[21] = biological target: T4, Methionyl-tRNA synthetase, putative; type: functional, Trypanosoma brucei brucei strain 927/4 GUTat10.1; remark: listed apart in the source
[22] = biological target: T5, Heat shock factor protein 1 (Mus musculus, UniProt P38532); test: enhancement of HSF1-driven luciferase signal – cell-based, NIH3T3, luminescence, dose retest, confirmation (AID 435004); type: functional;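 note: stress induced by proteasome inhibitor MG132 added 30 min after compound; luciferase reporter driven by HSF1 response element in NIH3T3 cells; actives raise luminescence as potentiators of the MG132 stress response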
T5 sequence (P38532 whole entry): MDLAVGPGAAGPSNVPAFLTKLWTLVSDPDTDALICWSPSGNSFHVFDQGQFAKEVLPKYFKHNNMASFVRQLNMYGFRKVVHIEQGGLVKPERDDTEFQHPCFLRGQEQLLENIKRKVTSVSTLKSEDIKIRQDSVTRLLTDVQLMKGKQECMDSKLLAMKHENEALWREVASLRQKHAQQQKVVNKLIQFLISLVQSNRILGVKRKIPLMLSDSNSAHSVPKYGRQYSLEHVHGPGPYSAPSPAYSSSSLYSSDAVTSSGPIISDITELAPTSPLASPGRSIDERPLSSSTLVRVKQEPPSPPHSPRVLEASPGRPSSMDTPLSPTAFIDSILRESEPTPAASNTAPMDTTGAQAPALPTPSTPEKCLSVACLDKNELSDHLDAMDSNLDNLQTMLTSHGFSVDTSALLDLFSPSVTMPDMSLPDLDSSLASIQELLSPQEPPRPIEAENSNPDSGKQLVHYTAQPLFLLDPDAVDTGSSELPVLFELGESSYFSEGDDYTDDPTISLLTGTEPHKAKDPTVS

[23] = biological target: T6, Sentrin-specific protease 1 (Homo sapiens, UniProt Q9P0U3); test: SENP1 catalytic domain blockers, concentration series – biochemical, kinetic FRET, dose response (AID 651697); type: functional; settings: read-out: IC50_Mean
T6 sequence (Q9P0U3 whole entry, the tested form may be a part): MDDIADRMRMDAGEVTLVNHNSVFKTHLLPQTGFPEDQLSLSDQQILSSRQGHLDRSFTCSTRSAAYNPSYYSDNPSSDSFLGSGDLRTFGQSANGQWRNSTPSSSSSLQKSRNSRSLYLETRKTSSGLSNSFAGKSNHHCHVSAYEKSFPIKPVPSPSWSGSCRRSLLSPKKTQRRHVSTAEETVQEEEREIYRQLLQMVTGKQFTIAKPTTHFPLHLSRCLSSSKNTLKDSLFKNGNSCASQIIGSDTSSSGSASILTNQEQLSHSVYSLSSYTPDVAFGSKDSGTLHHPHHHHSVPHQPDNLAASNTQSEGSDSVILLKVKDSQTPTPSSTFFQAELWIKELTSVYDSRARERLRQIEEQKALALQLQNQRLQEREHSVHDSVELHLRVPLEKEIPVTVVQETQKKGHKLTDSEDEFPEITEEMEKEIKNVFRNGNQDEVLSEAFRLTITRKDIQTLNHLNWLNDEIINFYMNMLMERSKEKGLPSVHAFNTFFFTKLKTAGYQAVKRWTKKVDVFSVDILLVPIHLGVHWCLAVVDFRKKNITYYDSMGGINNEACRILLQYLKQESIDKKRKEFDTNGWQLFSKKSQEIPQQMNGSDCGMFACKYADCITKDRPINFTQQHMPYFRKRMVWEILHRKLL

[24] = biological target: T6, Sentrin-specific protease 1; test: Dose response confirmation of small molecule inhibitors of the catalytic domain of the SUMO protease, SENP1 in a FRET assay.; type: functional; settings: read-out: IC50_Mean
[25] = biological target: T7, ATP-dependent translocase ABCB1 (Homo sapiens, UniProt P08183); test: inhibition of BCRP-mediated JC-1 efflux – Ig-MXP3 cells, flow cytometry, set 2, dose response (AID 504566); type: functional; settings: read-out: EC50_MICROM_;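 note: flow cytometry median green fluorescence of retained JC-1 dye; potency of efflux pump inhibition measured as rising substrate retention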
T7 sequence (P08183 whole entry): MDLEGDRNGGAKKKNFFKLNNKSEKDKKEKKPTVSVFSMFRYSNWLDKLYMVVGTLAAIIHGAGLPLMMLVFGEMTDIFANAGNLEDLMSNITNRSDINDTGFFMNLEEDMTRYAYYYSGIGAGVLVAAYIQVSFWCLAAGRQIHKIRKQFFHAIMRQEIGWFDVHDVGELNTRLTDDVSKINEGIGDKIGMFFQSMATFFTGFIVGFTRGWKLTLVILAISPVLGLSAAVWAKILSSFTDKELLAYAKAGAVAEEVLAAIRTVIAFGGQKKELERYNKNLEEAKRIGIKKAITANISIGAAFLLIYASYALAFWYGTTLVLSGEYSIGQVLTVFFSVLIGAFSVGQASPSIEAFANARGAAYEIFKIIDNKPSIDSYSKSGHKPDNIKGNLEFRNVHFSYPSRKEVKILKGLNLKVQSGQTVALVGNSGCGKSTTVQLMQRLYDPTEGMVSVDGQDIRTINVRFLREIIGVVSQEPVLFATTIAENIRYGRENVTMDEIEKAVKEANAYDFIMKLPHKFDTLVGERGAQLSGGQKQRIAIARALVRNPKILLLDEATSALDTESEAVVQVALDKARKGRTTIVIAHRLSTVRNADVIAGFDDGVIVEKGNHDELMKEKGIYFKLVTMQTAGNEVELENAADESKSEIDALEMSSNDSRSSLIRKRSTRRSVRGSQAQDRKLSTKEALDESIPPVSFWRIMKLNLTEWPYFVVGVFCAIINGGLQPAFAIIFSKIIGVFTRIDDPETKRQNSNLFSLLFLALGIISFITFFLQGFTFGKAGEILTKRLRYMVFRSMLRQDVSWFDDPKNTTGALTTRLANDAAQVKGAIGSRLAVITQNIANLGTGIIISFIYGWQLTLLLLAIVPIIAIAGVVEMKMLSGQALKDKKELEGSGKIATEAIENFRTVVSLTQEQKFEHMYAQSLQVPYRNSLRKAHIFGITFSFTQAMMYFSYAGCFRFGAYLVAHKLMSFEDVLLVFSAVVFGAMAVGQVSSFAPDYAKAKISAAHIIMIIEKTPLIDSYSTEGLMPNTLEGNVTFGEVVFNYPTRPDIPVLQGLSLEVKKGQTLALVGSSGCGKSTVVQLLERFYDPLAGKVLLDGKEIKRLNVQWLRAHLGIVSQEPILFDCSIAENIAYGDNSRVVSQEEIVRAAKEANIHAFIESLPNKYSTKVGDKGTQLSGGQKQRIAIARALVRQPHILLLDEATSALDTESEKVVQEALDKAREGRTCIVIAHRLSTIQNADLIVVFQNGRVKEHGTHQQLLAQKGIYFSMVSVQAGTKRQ

[26] = biological target: T7, ATP-dependent translocase ABCB1; test: P-gp JC-1 efflux blockade concentration-response – Jurkat-DNR cells, flow cytometry, set 2, dose response (AID 504569); type: functional; settings: read-out: EC50_MICROM_;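 note: potency of pump inhibitors that raise cellular JC-1 green fluorescence up to the nicardipine level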
[27] = biological target: Potassium voltage-gated channel subfamily KQT member 2 (Rattus norvegicus, UniProt O88943); test: blockers of KCNQ2 channel current – cell-based, automated electrophysiology, set II, rat KCNQ2, dose response (AID 588637); type: functional
Potassium voltage-gated channel subfamily KQT member 2, sequence (O88943 whole entry): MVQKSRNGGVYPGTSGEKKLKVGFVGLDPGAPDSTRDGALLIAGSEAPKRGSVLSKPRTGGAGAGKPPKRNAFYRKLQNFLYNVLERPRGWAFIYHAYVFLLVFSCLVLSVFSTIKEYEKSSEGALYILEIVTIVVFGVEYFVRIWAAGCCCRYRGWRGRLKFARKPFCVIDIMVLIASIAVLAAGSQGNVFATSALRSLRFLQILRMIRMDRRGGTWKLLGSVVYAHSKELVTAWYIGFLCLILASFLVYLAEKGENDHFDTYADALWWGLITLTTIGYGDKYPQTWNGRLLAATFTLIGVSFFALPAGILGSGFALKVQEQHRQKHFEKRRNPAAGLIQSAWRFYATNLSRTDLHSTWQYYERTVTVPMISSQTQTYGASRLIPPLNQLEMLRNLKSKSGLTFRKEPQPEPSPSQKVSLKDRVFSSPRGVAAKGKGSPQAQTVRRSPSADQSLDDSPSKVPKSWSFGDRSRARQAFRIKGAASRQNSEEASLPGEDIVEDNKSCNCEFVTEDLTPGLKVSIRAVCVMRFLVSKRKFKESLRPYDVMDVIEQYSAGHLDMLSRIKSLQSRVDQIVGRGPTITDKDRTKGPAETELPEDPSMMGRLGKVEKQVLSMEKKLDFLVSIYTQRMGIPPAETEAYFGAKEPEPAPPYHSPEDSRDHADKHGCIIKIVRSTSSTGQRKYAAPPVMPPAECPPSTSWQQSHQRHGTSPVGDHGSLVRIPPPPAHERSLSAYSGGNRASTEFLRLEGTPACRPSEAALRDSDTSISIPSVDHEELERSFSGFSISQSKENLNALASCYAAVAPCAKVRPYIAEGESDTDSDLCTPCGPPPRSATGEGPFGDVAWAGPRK

[28] = test system: INS1; test: INS-1E survival protection against cytokine death – cell-based, luminescence, retest, dose response (AID 449756); type: functional; settings: Rattus norvegicus;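 note: cell death triggered by IL-1 beta plus TNF-alpha plus IFN-gamma mixture; protective hits raise ATP signal compared with cytokine alone wells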

SMILES: CC(C)(C)C(=O)C(Oc1ccc(Cl)cc1)n1cncn1 (stereo not drawn) [TRIADIMEFON]
- AC50 [1]: 0.794 µM (inconclusive)
- AC50 [2]: 70.8 µM (inconclusive)

SMILES: CN1CCC2(CC1)N=C(c1ccc(F)cc1)C(=S)N2C(=O)c1ccccc1
- IC50 [3]: > 100 µM (inactive)
- IC50 [4]: 28.6 µM (active)

SMILES: CCOc1ccc(NC(=O)CSc2nc(O)c3c[nH]nc3n2)cc1
- IC50 [7]: 8.61 µM (active)
- IC50 [8]: 2.89 µM (active)
- IC50 [9]: 35.9 µM (inactive)

SMILES: NC(=O)c1nc(-c2ccco2)nc2c1[nH]c(=O)n2-c1ccc(Cl)c(Cl)c1
- EC50 [13]: 14 µM (active)

SMILES: O=C(CCCOc1ccc(Cl)cc1Cl)N/N=C/c1ccccc1
- IC50 [19]: 110 µM (inactive)
- IC50 [20]: 83.3 µM (inactive)
- IC50 [21]: 16 µM (inactive)

SMILES: S=C(c1cn(CCOc2cccc3ccccc23)c2ccccc12)N1CCCC1
- AC50 [28]: 4.3 µM (active)
- IC50 [10]: 32.9 µM (active)
- IC50 [11]: > 100 µM (inactive)
- IC50 [12]: 41.8 µM (active)

Second part, the molecule after the results:

- IC50 [5]: 6.86 µM (active)
- IC50 [6]: 4.22 µM (active)
SMILES: COc1ccc(C(=O)NC(C)CCn2cccn2)cc1OC1CCN(C(C)C)CC1 (stereo not drawn)

- IC50 [10]: 25 µM (active)
- IC50 [11]: > 100 µM (inactive)
- IC50 [12]: 64.3 µM (active)
SMILES: CCSC1=N/C(=C\c2ccc3c(c2)OCO3)C(=O)S1

- IC50 [14]: 17.1 µM (active)
- IC50 [15]: 54.2 µM (inactive)
SMILES: NS(=O)(=O)c1ccc(CCNC(=O)c2ccc3nccnc3c2)cc1

- IC50 [16]: > 80 µM (inactive)
- IC50 [17]: 57 µM (inactive)
- IC50 [18]: > 80 µM (inactive)
SMILES: CCc1ccc(NC(=O)Cc2cn(C)c3ccccc23)cc1

- EC50 [22]: 95.5 µM (active)
- IC50 [23]: 13.2 µM (active)
- IC50 [24]: 13.8 µM (active)
SMILES: CSc1c(C#N)c(N)nc2sc(C(=O)c3ccccc3)c(N)c12

- EC50 [25]: 1.3 µM (active)
- EC50 [26]: 4.86 µM (active)
SMILES: COc1ccc(-c2cc(N3CCN(C(=O)c4ccoc4)CC3)n3nc(-c4cccc(Cl)c4)cc3n2)cc1

- IC50 [27]: 0.64 µM (active)
SMILES: O=C(COc1ccc(F)cc1Cl)Nc1ccccc1C(=O)N1CCCCC1

- IC50 [5]: 0.479 µM (active)
- IC50 [6]: 0.178 µM (active)
SMILES: OC(CNC1Cc2ccccc2C1)c1ccccc1 (stereo not drawn)
